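Exposure lasted 48 hours, with cells grown in 96-well plates and compounds tested at five concentrations. GI50: concentration for 50% inhibition of growth. At the TGI there is no net growth.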
Experiments:
Experiment in all cases: NCI-60 cell line screen, 48 h
[1] = test system: RXF 393 renal
[2] = test system: NCI-H226 lung
[3] = test system: COLO 205 colon
[4] = test system: A498 renal
[5] = test system: A549 NSCLC
[6] = test system: SK-MEL-2 melanoma
[7] = test system: OVCAR-8 ovarian
[8] = test system: CCRF-CEM leukemia
[9] = test system: NCI-H522 lung
[10] = test system: MALME-3M melanoma

Structure (SMILES) | GI50 [1] [µM] | TGI [1] [µM] | GI50 [2] [µM] | TGI [2] [µM] | GI50 [3] [µM] | TGI [3] [µM] | GI50 [4] [µM] | TGI [4] [µM] | GI50 [5] [µM] | TGI [5] [µM] | GI50 [6] [µM] | TGI [6] [µM] | GI50 [7] [µM] | TGI [7] [µM] | GI50 [8] [µM] | TGI [8] [µM] | GI50 [9] [µM] | TGI [9] [µM] | GI50 [10] [µM] | TGI [10] [µM]
COC(=O)[C@@H](C)C[C@H](Cc1cn(C)c2ccccc12)NC(=O)c1csc([C@@H](C[C@H](C(C)C)N(C)C(=O)[C@@H](NC(=O)[C@H]2CCCCN2C)C(C)C)OC(C)=O)n1 | 0.023 | > 16.7 | 0.0983 | > 12 | 0.00788 | 0.0859 | 0.0456 | 1.12 | 0.0338 | > 16.7 | 0.0115 | > 16.7 | 0.0302 | > 16.7 | 0.00779 | > 16.7 | 0.00303 | 0.0108 |  | 
c1ccc([CH2][Sn]([CH2]c2ccccc2)([O]c2cccc3cccnc23)[O]c2cccc3cccnc23)cc1 |  |  | 1.38 | 2.85 | 0.194 | 0.477 | 0.429 | 0.692 | 0.245 | 0.69 | 0.511 | 1.77 | 0.515 | 1.59 |  |  | 0.186 | 0.351 | 0.266 | 0.689
Cc1ccc(S(=O)(=O)c2ccc(NC(=O)SCCC(=O)O)cc2)cc1 |  | > 100 |  | > 100 |  | > 100 |  | > 100 |  | > 100 |  | > 100 |  | > 100 |  | > 100 |  | > 100 |  | 
O=C(COc1ccc(/C=C2\COc3ccccc3C2=O)cc1)Nc1nccs1 |  |  | 14.4 | 29.9 | 14.6 | 29 | 19.3 | 33.7 | 14.3 | 47.4 | 10.8 | 24 | 4.49 | 45.2 | 1.61 | 6.39 | 1.91 | 4.39 | 16.3 | 36.2
O=C1c2[nH]cc(CNC3CN4CCC3CC4)c2C(=O)c2c1c(O)c1ccccc1c2O (stereo unspecified) | 5.28 | 84.3 | 16.3 | 41.4 | 2.05 | 9.56 |  | 1.72 | 6.31 | 47.4 | 4.02 | 18.6 | 17.6 | > 100 | 0.141 | 1.56 |  |  | 2.78 | 7.14
O=C(c1ccco1)c1nc2cc(C(F)(F)F)ccc2nc1C(F)(F)F | > 100 | > 100 |  |  | > 100 | > 100 | > 100 | > 100 | > 100 | > 100 | > 100 | > 100 | > 100 | > 100 |  |  | > 100 | > 100 | > 100 | > 100
COc1c(C)cc(O)cc1C=O |  | > 100 |  | > 100 |  | > 100 |  |  |  | > 100 |  | > 100 |  | > 100 |  | > 100 |  | > 100 |  | > 100
CCOC(=O)c1ccc2c(c1)Cc1cc([N+](=O)[O-])ccc1-2 |  | 55.5 |  | 51.2 |  | 78.6 |  | > 100 |  | > 100 |  |  |  | > 100 |  | > 100 |  |  |  | > 100
CCOC(=O)C1=C(C)N=c2s/c(=C\c3ccccc3O)c(=O)n2C1c1ccc(OC)c2ccccc12 (stereo unspecified) | 4.3 | 17.3 | 12.6 | 32.4 | 30.8 | > 100 |  |  | 3.88 | 16.7 | 32.3 | 87.1 | 5.35 | 22 | 23.2 | > 100 | 13.4 | 44.3 | 4.14 | 19
O=C1/C(=C\c2ccc(F)cc2)CN(C(=O)c2ccccc2)C/C1=C\c1ccc(F)cc1 | 1.99 | 4.85 | 26.6 | > 100 | 3.15 | 10 |  |  | 4.92 | 71.9 | 4.44 | 19.5 | 2.82 | 17.5 | 1.05 | > 100 | 2.35 | 7.73 | 3.66 | 12.2
O=c1cc(-c2ccccc2)oc2ccc(OC/C(=N/O)c3ccccc3)cc12 | 2.46 | 14.8 | 15.9 | > 50 | 1.89 | 25.3 |  |  | 3 | > 50 | 29.6 | > 50 | 3.82 | > 50 | 1.51 | > 50 | 2.88 | > 50 |  | 
CCOC(=O)C1SC(=Nc2cccc(Cl)c2C)N=C1C (stereo unspecified) |  | > 100 |  | 72.6 |  | 38.3 |  | > 100 |  | 60.4 |  | 37 |  | 61.9 |  |  |  | 35.2 |  | 42.4
O=C1CC(c2c(-c3ccccc3)[nH]c3ccccc23)C(=O)N1 (stereo unspecified) |  | > 100 |  | > 100 |  |  |  | > 100 |  | > 100 |  | > 100 |  | > 100 |  | > 100 |  |  |  | > 100
COc1ccccc1NC(=O)C1=C(C)NC(C)=C(C(=O)Nc2ccccc2OC)C1C1=CC=COC1 |  |  |  | > 100 |  | > 100 |  | 45.4 |  | > 100 |  |  |  | 40.4 |  | 48.4 |  |  |  | > 100
CC[C@@H]1[C@@H](C)O[C@@](O)([C@@H](C)[C@H](O)[C@H](C)[C@H]2OC(=O)/C=C/C=C/[C@H](C)[C@@H]([C@@H](C)[C@@H](O)[C@H](C)[C@@]3(O)C[C@@H](O[C@H]4C[C@@H](O)[C@H](O)C(C)O4)[C@H](CC)[C@@H](C)O3)OC(=O)/C=C/C=C/[C@@H]2C)C[C@H]1O[C@@H]1C[C@@H](O)[C@H](O)C(C)O1 (stereo partly specified) | 0.0521 | 0.119 | 0.0655 | 0.139 | 0.0795 | 0.179 | 0.0596 | 0.131 | 0.112 | 0.344 | 0.0808 | 0.197 | 0.138 | 0.557 |  |  | 0.0885 | 0.303 | 0.0857 | 0.234
Nc1ccccc1NC(=O)c1ccc(CNc2nccc(-c3cccnc3)n2)cc1 | 0.878 | 3.01 | 1.79 | 23.6 | 0.626 | 2.06 |  |  | 1.35 | > 47.6 | 0.481 | 3.71 | 0.541 | > 100 | 0.742 | > 100 | 0.337 | 1.76 | 0.57 | > 21.7
OC(c1cc(-c2cccc(Cl)c2)nc2ccccc12)C1CCCCN1 (stereo unspecified) |  |  |  |  | 1.98 | 3.7 |  |  | 1.7 | 3.1 | 2.18 | 4.02 | 1.79 | 3.42 | 2.08 | 4.74 | 1.97 | 3.66 | 2.05 | 3.77

Structure (SMILES) | GI50 [1] [µM] | TGI [1] [µM] | GI50 [2] [µM] | TGI [2] [µM] | GI50 [3] [µM] | TGI [3] [µM] | GI50 [4] [µM] | TGI [4] [µM] | GI50 [5] [µM] | TGI [5] [µM] | GI50 [6] [µM] | TGI [6] [µM] | GI50 [7] [µM] | TGI [7] [µM] | GI50 [8] [µM] | TGI [8] [µM] | GI50 [9] [µM] | TGI [9] [µM] | GI50 [10] [µM] | TGI [10] [µM]
Cc1cc(=O)[nH]c(N/N=C/c2cc(Br)ccc2O)n1 | 3.35 | > 100 | 2.1 | > 100 | 3.45 | 32.5 | 4.06 | 25.4 | 1.84 | > 100 | 49.3 | > 100 | 0.369 | 35.6 | 0.441 | > 100 | 3.37 | 22 |  | 
COC(=O)C(Cc1nc2ccccc2[nH]c1=O)/C(=N\NC(C)(C)C)C(=O)Nc1c(C)cc(Br)cc1C (stereo unspecified) |  |  |  | 54.4 |  | 36.5 |  | 69.5 |  | > 100 |  | > 100 |  | 54.2 |  | 57.3 |  | 29 |  | 62.2
Cc1cc([N+](=O)[O-])ccc1NC(=O)C(=O)C(C(=O)c1ccccc1-c1ccccc1)C1OC(=O)c2ccccc21 (stereo unspecified) |  | 19.5 |  | 28.5 |  | 41.8 |  |  |  | > 100 |  | 29.2 |  | 77.1 |  | > 100 |  | 26.2 |  | 29.9
Cn1cc(C2=C(c3ccccc3[N+](=O)[O-])C(=O)NC2=O)c2ccccc21 | 1.61 | 7.19 | 4.37 | > 20.3 | 2.79 | 6.38 | 0.384 | 2.57 | 4.09 | > 21.8 | 2.92 | 9.55 | 6.07 | > 25 |  |  | 5.78 | 18.1 | 9.55 | > 20.8
C=C(C)C1CC/C(C)=C/CCC2(C)OC2CC/C(CO)=C\C1O (stereo unspecified) |  | > 100 |  | > 100 |  | > 100 |  | > 100 |  | > 100 |  | > 100 |  | > 100 |  | > 100 |  |  |  | > 100
CO/C=C/C(=O)c1cc2cnc3c(=N)cc(NC(=O)C(C)C)c([nH]1)c23 | 0.0301 | 0.246 | 0.106 | 1.26 | 0.135 | 0.869 | 0.1 | 0.602 | 1.52 | 15.1 | 0.0907 | 0.299 | 0.113 | 1.02 | 0.0184 | 4.94 | 0.969 | 11 |  | 
CCC(CC)c1nc(Nc2ccc(C(=O)OC)cc2)c2ccccc2n1 | 8.34 | 21.3 | 7.93 | 22.8 | 8.2 | 15 |  |  | 10.2 | 27.2 | 9.39 | 20 | 12.9 | > 31.4 | 6.64 | 48.9 | 8.65 | 18.4 |  | 
CC(C)N1CC2CN(Cc3ccccc3)CC(C1)C2=O |  | > 100 |  | > 100 |  | > 100 |  |  |  | > 100 |  | > 100 |  | > 100 |  | > 100 |  | > 100 |  | > 100
NCCCNc1nc2ccccc2c2c(=O)c3cc(F)cc(F)c3sc12 | 1.42 | 2.97 | 10.9 | 29.1 | 1.92 | 4.62 | 1.38 | 2.93 |  |  | 2.67 | 7.04 | 2.1 | 5.14 |  |  |  |  | 1.62 | 3.21
C=CC(=O)NCCSCCCOC1(C(=O)O)CC(O)C(NC(C)=O)C(C(O)C(O)CO)O1 (stereo unspecified) |  | > 100 |  | > 100 |  | > 100 |  |  |  | > 100 |  | > 100 |  | > 100 |  |  |  | > 100 |  | > 100
CCN(CC)CC(C)(C)C(=O)/C=C/c1cccc(/C=C/C(=O)C(C)(C)CN(CC)CC)c1 |  | 1.49 |  | 3.38 |  | 0.821 |  | 2.71 |  | 2.67 |  |  |  | 1.47 |  | 11.6 |  |  |  | 3.11
Nc1c(-c2cn(Cc3ccccc3)c3ccccc23)[n+]([O-])c2ccccc2[n+]1[O-] |  |  |  | 36.5 |  | > 100 |  | 41.9 |  | > 100 |  | 57 |  | > 100 |  | > 100 |  | 48.6 |  | > 100
COc1cccc2ccc(C(=O)c3ccccc3)nc12 |  |  |  | > 100 |  | > 100 |  |  |  | > 100 |  | > 100 |  | > 100 |  | > 100 |  | > 100 |  | > 100
COc1c(O)c(OC)c2oc(-c3ccc(O)c(O)c3)c(OC)c(=O)c2c1O |  |  |  | > 100 |  | > 100 |  | > 100 |  | > 100 |  | 28.3 |  | > 100 |  | > 100 |  | 33.4 |  | 68
CC1=C(O)c2cn(C)cc2C(=O)C1=O |  | > 100 |  | > 100 |  | > 100 |  | > 100 |  | > 100 |  | > 100 |  | > 100 |  | > 100 |  |  |  | > 100
C[n+]1c(/C=C/c2c[nH]c3ccccc23)ccc2ccccc21 | 13.9 | 27.9 | 11 | 29.1 | 5.44 | 22.2 | 2.8 | 18.1 | 5.38 | 26 | 16.1 | 30.6 | 4.24 | 28.9 | 5.59 | 45 | 11.8 | 25.9 |  | 

— PubChem BioAssay (NCI)
